Test results reported in patent US20160009752A1, “[…]-OXIMINO-AMINOALKYLETHERS AND PROCESS FOR PREPARATION THEREOF, USEFUL AS ANTIDIABETIC AND […] AGENTS” (COUNCIL OF SCIENTIFIC & INDUSTRIAL RESEARCH, priority 2013, published 2016).

System: Triton-induced hyperlipidemic rat model
Experiment: Antidyslipidaemic activity in Triton-induced hyperlipidemic rat model
Assay type: in vivo
Settings: summary of Tables 1-2
Procedure: Male charles foster rats weighing around 200 to 225 g were divided into control, dyslipidemic and dyslipidemic plus drug treated groups containing six animals in each group. Dyslipidemia was induced by administration of triton WR-1339 (200 mg/kg intraperitoneally). All animals were maintained on a special pellet diet and water ad libitum. Test compounds and standard drug (Gemfibrozil) were macerated in 0.2% aqueous gum acacia. The fine suspension of test compounds and standard drug were fed orally to the respective groups at the dose of 100 mg/kg simultaneously with triton WR-1339 in drug treated group. The animals of control group received the same amount of gum acacia by similar route of administration. […]
Total plasma cholesterol was estimated using the kit and instructions as provided by the manufacturer Roche Diagnostics. […] The hydrogen peroxide combines with hydroxybenzoic acid (HBA) and 4-aminoantipyrine (4-AAA) in the presence of peroxidase (POD) to form a red chromophore (quinoneimine) which is quantitated at 500-505 nm. […]
Total plasma triglycerides were estimated using the kit and instructions as provided by the manufacture i.e. Roche Diagnostics. […] In the presence of peroxidase, hydrogen peroxide oxidatively couples with 4-aminoantipyrine and 4-chlorophenol to produce red chromophore quinonimine which is quantitated at 500-505 nm. […]

SMILES | antidyslipidemic / antidiabetic activity, summary in words
C/C(=N/OCc1ccccc1)C1=CC[C@H]2[C@@H]3CC=C4C[C@@H](O)CC[C@]4(C)[C@H]3CC[C@]12C [Compound 10b, 3β-Hydroxy-pregna-5,16-dien-20-one-O-benzyl-oxime] | mainly antidyslipidemic activity
CCCCO/N=C(/C)C1=CC[C@H]2[C@@H]3CC=C4C[C@@H](O)CC[C@]4(C)[C@H]3CC[C@]12C [Compound 10a, 3β-Hydroxy-pregna-5,16-dien-20-one-O-n-butyl-oxime] | mainly antidyslipidemic activity
